Results on 2 molecules are retold here after patent US20100258138A1, “RADIOLABELED 1-ACETATE PET IMAGING FOR RA[…] HEAD AND NECK CANCER” (priority 2006, published 2010).

In data set [1] the test system is primary tumors of head and neck squamous cell carcinoma. Kind of data set: ACE-PET imaging of primary tumors. The format is in vivo, human. On the procedure: (§1) None of the patients suffered from diabetes. […] All patients participating in the study provided informed consent.
(§2) Six patients were studied with dedicated PET and four patients were investigated with PET/CT. A 32 minutes dynamic emission scan was performed immediately after intravenous injection of 10 MBq/kg body weight ACE. The scan time was 12×5s, 6×10s, 4×30s, 4×60s, 2×120s and 4×300s. Frame 30 (17-22 minutes after injection) generally provided the best image quality with highest tumor to background ratio and was therefore chosen for subsequent data analysis.
(§3) Isoactivity pixel value=(MPVtumor+APVbackground)×50%

The test system of data set [2] is lymph node metastases of head and neck squamous cell carcinoma. Kind of data set: ACE-PET imaging of metastases. The format is in vivo, human. On the procedure: as §1, §2, §3
A further data set concerns salivary glands. Kind of data set: ACE-PET physiological uptake in normal tissue. Particulars: in vivo. Set-up: species or system human. As to the method: as §2
Data set [3] concerns primary tumors of head and neck squamous cell carcinoma. Particulars: ten patients. On the procedure: (§4) Ten consecutive patients (median age 56, range 18-77 years), where of eight males and two females with histologically confirmed squamous cell carcinoma of the head and neck, were included in the study. None of the patients suffered from diabetes. […] Conventional staging of the tumors was performed by CT (n=9), MRI (n=1), histopathology and clinical examination. Histological confirmation was obtained by guided biopsies in all the primary tumors and most metastatic sites. […] All patients participating in the study provided informed consent. The study was accepted by the ethical committee of the participating hospital.
(§5) In all patients, both FDG-PET and ACE-PET were performed before the radiotherapy treatment. ACE and FDG-PET scans were performed on the same or consecutive day, except for one patient where the two types of PET scanning were done five days apart. PET studies were carried out with a dedicated PET scanner (Siemens ECAT HR^+, Knoxville, Tenn., USA) or with a PET/CT (GE Discovery S T, Milwaukee, Wis., USA). All patients were normoglycemic and were fasted at least 6 hours before tracer injection.
(§6) Whole-body scanning was performed one hour after intravenous injection of 5 MBq/kg body weight FDG. Six patients were examined by PET/CT and four patients were studied by PET alone. The patients were instructed to remain recumbent and avoid voicing and other uses of neck muscles during the uptake period.
(§7) PET images were co-registered with the CT or MRI images in all patients by a normalized mutual information procedure supported by manual correction using Hermes Multimodality™ software (Nuclear Diagnostics, Stockholm, Sweden). FDG-PET and ACE-PET images were analyzed both qualitatively and quantitatively, using Hermes Volume Display™ version V2β. In qualitative analysis, PET images were interpreted visually by two nuclear medicine physicians and any disagreement was resolved by consensus. The tumor uptake of FDG and ACE was graded into negligible, mild, moderate and intensive compared to the contra-lateral or surrounding tissues. An abnormal uptake equal to or exceeding mild was considered positive. In quantitative analysis, the mean standardized uptake value (SUV) and tumor volumes delineated by ACE and FDG-PET were evaluated. SUV was calculated as mean radioactivity concentration in the volumes (Bq/cc) divided by injected dose (Bq) per kilogram body weight. […]
(§8) Each tumor volume in FDG-PET and ACE-PET was delineated automatically by tracing an isoactivity pixel value set to 50% threshold of the maximum radioactivity corrected for background. The background was measured from a separately drawn region of interest (ROI) adjacent but at safe distance from the tumor. The isoactivity pixel value of each volume was calculated as: […]

For data set [4], the system named is lymph node metastases of head and neck squamous cell carcinoma. As to conditions: 21 metastatic lesions. On the procedure: as §4, §5, §6, §7, §8

Where “and” joins values, the source holds several entries; their conditions need not be identical. Equal values may be shown once.

Regarding `C[11C](=O)O` [ACE, ^11C-acetate], the “ACE-PET SUV” value is 3.7 and 3.8 and 2.7 and 5.7 and 10.6 and 4.9 and 3.9 and 9.2 and 2.5 and 6.0 in data set [1] (primary tumor, individual patient (one line per patient), 10 MBq/kg i.v., frame 17-22 min after injection); 3.5 and 5.9 and 4.7 and 5.1 and 3.1 and 2.9 and 4.5 and 3.9 and 4.6 and 5.8 and 3.0 and 2.8 and 2.6 and 3.7 and 6.2 and 2.4 and 2.7 in data set [2] (individual metastasis (one line per lesion), 10 MBq/kg i.v., frame 17-22 min). In addition, the “ACE-PET Visual” value in data set [1] (primary tumor, individual patient, visual grading of uptake vs contra-lateral or surrounding tissue) is “+ (2×) and +++ (4×) and ++ (4×)”; in data set [2] (individual metastasis, visual grading of uptake), “+++ (6×) and ++ (9×) and − and + (5×)”. Further, the “ACE-PET SUV, Mean ± SD” value in data set [1] (primary tumors, ten patients) stood at 5.3±2.7. Also, the “range of ACE SUV” value in data set [1] (primary tumors, ten patients) is reported as 2.5-10.6; in data set [2] (21 metastatic lesions), 2.4-6.2. Besides, the “ACE SUV (mean±SD)” value in data set [2] (21 metastatic lesions) was found to be 4.0±1.3. Besides, the “physiological uptake of ACE in salivary glands” value with salivary glands is “normally high physiological uptake”.
For the molecule `OC[C@H]1OC(O)[C@H]([18F])[C@@H](O)[C@@H]1O` (stereo partly drawn) [FDG, ^18F-fluoro-2-deoxy-D-glucose], in data set [3], the “FDG-PET SUV, Mean ± SD” value came out at 9.6±7.0 and the “range of FDG SUV” value is 1.9-24.5. In addition, in data set [4], the “FDG SUV (mean±SD)” value is 4.47±3.3 and the “range of FDG SUV” value was 0.9-10.0.
